# Assay results reported in patent US10092574B2, “Inhibitors of polynucleotide repeat-associated RNA foci and uses thereof” (VALORISATION-RECHERCHE, LIMITED PARTNERSHIP, priority 2013, dated 2018).
# Test system: TNNT2 exon 5
# Experiment: RT-PCR alternative splicing assay, TNNT2 exon 5
# Type: cell-based, human
# Conditions: DM1 myoblasts, 20 μM, 7 days; from 90% (FIG. 8C)
# Description: Human myoblasts were obtained from the Myosix institute associated with the Association Frangaise contre les Myopathies (AFM). Five primary myoblast lines were obtained as controls, and one line from a DM1 patient with a 3.8 Kb CTG triplet amplification corresponding to approximately 1250 CTG repeats. The human myoblasts are cultivated in HAM-F10 media (SIGMA N6635) with 15% FBS, 1% chick embryo extract, and 390 ng/ml of dexamethasone. One day before adding compounds, 2×10^5 cells were plated in 100 mm plates (for CUGBP1 western blot or RT-PCR alternative splicing assay) or 2×10^4 cells/well are seeded in 12-well plates containing 12 mm round glass coverslips (for FISH to detect RNA foci). […]
# For Western blots, CUGBP1 was detected with the 3B1-3D11 monoclonal antibody (mAb) (SIGMA C5112) and GAPDH was detected with the 6C5 mAb (Millipore MAB374). The enhanced chemiluminescence signal (ECL) was acquired and quantified with the ChemiDoc™ MP imaging system (Bio-Rad). […] The alternative splicing of the hnRNPA2/B1 transcript was detected with the primers 5′-[…]-3′ (SEQ ID NO:7) and 5′-[…]-3′ (SEQ ID NO:8). PCR was performed with Taq using standard conditions but the number of amplification cycles was optimized to be in the quantitative range for each gene. […]
structure (smiles),measurement,value
CCCN(CCC)S(=O)(=O)c1ccc(NS(=O)(=O)Cc2ccccc2)cc1 [Compound 15],"inclusion of foetal TNNT2 exon 5, of total transcripts",76%
